# Test results from ChEMBL document CHEMBL1201862, “PubChem BioAssay data set” (2004).
#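 Values below derive from 48-hour exposures of cells grown in 96-well plates, with endpoints linearly interpolated between the two concentrations bracketing the appropriate inhibition level. At the GI50, growth is halved.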 The source made the active and inactive calls. No stated cut-off is given here; in the data, active = GI50 up to about 1.1 µM and inactive = higher.
# Tests used:
# Assay in all cases: NCI tumour cell line growth inhibition, 48 h
# [1] = system: HT-29
# [2] = system: NCI-H226
# [3] = system: CAKI-1
# [4] = system: SK-OV-3
# [5] = system: UACC-257
# [6] = system: KM12
# [7] = system: NCI-H522
# [8] = system: COLO 205
# [9] = system: OVCAR-8
# [10] = system: SK-MEL-28
# [11] = system: SK-MEL-5
# [12] = system: HCT-15
# [13] = system: SK-MEL-2
# [14] = system: M14
# [15] = system: HOP-62
# [16] = system: UO-31
# [17] = system: ACHN
# [18] = system: 786-0
SMILES,GI50 [1],GI50 [2],GI50 [3],GI50 [4],GI50 [5],GI50 [6],GI50 [7],GI50 [8],GI50 [9],GI50 [10],GI50 [11],GI50 [12],GI50 [13],GI50 [14],GI50 [15],GI50 [16],GI50 [17],GI50 [18]
CC1(C)N=C(N)N=C(N)N1c1ccc(OCCCOc2ccccc2)c(Cl)c1,0.0161 µM (active),0.798 µM (active),1.77 µM (inactive),7.31 µM (inactive),0.766 µM (active),0.122 µM (active),0.247 µM (active),0.112 µM (active),0.514 µM (active),0.809 µM (active),0.265 µM (active),2.48 µM,1.37 µM (inactive),–,–,–,–,–
CC(=O)C(C(=O)C(=O)Nc1cc(Cl)c(Cl)cc1Cl)c1csc(N)n1 (centres undefined),> 100 µM (inactive),> 100 µM (inactive),> 100 µM (inactive),> 100 µM (inactive),> 100 µM (inactive),> 100 µM (inactive),> 100 µM (inactive),> 100 µM (inactive),> 100 µM (inactive),> 100 µM (inactive),> 100 µM (inactive),> 100 µM,> 100 µM (inactive),> 100 µM (inactive),> 100 µM (inactive),> 100 µM (inactive),> 100 µM (inactive),–
CC(=O)OC1(C#N)CC2OC1C1C2N1C(=O)c1ccccc1 (centres undefined),–,> 100 µM (inactive),> 100 µM (inactive),> 100 µM (inactive),–,–,> 100 µM (inactive),> 100 µM (inactive),> 100 µM (inactive),> 100 µM (inactive),> 100 µM (inactive),> 100 µM,> 100 µM (inactive),> 100 µM (inactive),> 100 µM (inactive),> 100 µM (inactive),> 100 µM (inactive),> 100 µM (inactive)
N#CC(C(=O)CCC(=O)Nc1cccc(Cl)c1)c1ccccc1 (centres undefined),> 100 µM (inactive),> 100 µM (inactive),–,> 100 µM (inactive),> 100 µM (inactive),> 100 µM (inactive),> 100 µM (inactive),> 100 µM (inactive),> 100 µM (inactive),> 100 µM (inactive),> 100 µM (inactive),> 100 µM,> 100 µM (inactive),> 100 µM (inactive),> 100 µM (inactive),> 100 µM (inactive),> 100 µM (inactive),> 100 µM (inactive)
Cc1[nH]c2cc([N+](=O)[O-])ccc2c1[N+](=O)[O-],27.9 µM (inactive),14.2 µM (inactive),19 µM (inactive),–,17 µM (inactive),21.3 µM (inactive),13.3 µM (inactive),13.7 µM (inactive),25.8 µM (inactive),21 µM (inactive),14 µM (inactive),–,14.1 µM (inactive),19.5 µM (inactive),7.28 µM (inactive),7.96 µM (inactive),15.5 µM (inactive),29 µM (inactive)
O=c1nc2occc2cn1C1CC(O)C(CO)O1 (centres undefined),> 100 µM (inactive),> 100 µM (inactive),> 100 µM (inactive),> 100 µM (inactive),> 100 µM (inactive),> 100 µM (inactive),–,> 100 µM (inactive),> 100 µM (inactive),> 100 µM (inactive),> 100 µM (inactive),> 100 µM,–,> 100 µM (inactive),> 100 µM (inactive),> 100 µM (inactive),> 100 µM (inactive),> 100 µM (inactive)
CCCCN[C@H]1C2C3CC4C5CC(C42)C1(C)C53 (some centres undefined),> 100 µM (inactive),> 100 µM (inactive),> 100 µM (inactive),> 100 µM (inactive),> 100 µM (inactive),> 100 µM (inactive),> 100 µM (inactive),> 100 µM (inactive),–,> 100 µM (inactive),> 100 µM (inactive),> 100 µM,> 100 µM (inactive),> 100 µM (inactive),> 100 µM (inactive),> 100 µM (inactive),> 100 µM (inactive),> 100 µM (inactive)
Cc1cc(NCCCCCCCNc2cc(C)nc3cc(N)ccc23)c2ccc(N)cc2n1,34 µM (inactive),20.4 µM (inactive),> 100 µM (inactive),40.6 µM (inactive),47.6 µM (inactive),20.7 µM (inactive),13.7 µM (inactive),14 µM (inactive),36.3 µM (inactive),32.7 µM (inactive),22.2 µM (inactive),> 100 µM,78.3 µM (inactive),43 µM (inactive),41.9 µM (inactive),> 100 µM (inactive),> 100 µM (inactive),> 100 µM (inactive)
CCCCCCCCCCCC[N+](CCCCCCCCCCCC)=C1SCCS1,3.36 µM (inactive),14.2 µM (inactive),12.8 µM (inactive),16.6 µM (inactive),9.14 µM (inactive),–,5.82 µM (inactive),8.04 µM (inactive),2.86 µM (inactive),11 µM (inactive),6.07 µM (inactive),10.7 µM,10.7 µM (inactive),10.5 µM (inactive),16.7 µM (inactive),13.4 µM (inactive),12.5 µM (inactive),3.52 µM (inactive)
Cc1ccc(C)c(NC(=O)C(=O)C2C(=O)N(c3ccccc3)N=C2N)c1 (centres undefined),> 100 µM (inactive),> 100 µM (inactive),> 100 µM (inactive),–,> 100 µM (inactive),> 100 µM (inactive),> 100 µM (inactive),–,> 100 µM (inactive),> 100 µM (inactive),> 100 µM (inactive),> 100 µM,> 100 µM (inactive),> 100 µM (inactive),> 100 µM (inactive),> 100 µM (inactive),> 100 µM (inactive),> 100 µM (inactive)
NC(=S)N1N=C2c3ccccc3CC[C@H]2[C@@H]1c1ccc(Cl)cc1,24.9 µM (inactive),16.7 µM (inactive),–,36.9 µM (inactive),25.2 µM (inactive),29 µM (inactive),9.18 µM (inactive),17.9 µM (inactive),31.6 µM (inactive),40.8 µM (inactive),–,33.3 µM,22.3 µM (inactive),28.2 µM (inactive),30.1 µM (inactive),20.8 µM (inactive),24.4 µM (inactive),30.6 µM (inactive)
CC(=O)/C=C1/c2ccccc2N(C(C)=O)C1O (centres undefined),> 100 µM (inactive),–,> 100 µM (inactive),> 100 µM (inactive),> 100 µM (inactive),> 100 µM (inactive),–,> 100 µM (inactive),> 100 µM (inactive),> 100 µM (inactive),–,> 100 µM,> 100 µM (inactive),> 100 µM (inactive),> 100 µM (inactive),> 100 µM (inactive),> 100 µM (inactive),> 100 µM (inactive)
Cc1cc(C)c(N)c(C)c1N,–,–,–,> 100 µM (inactive),> 100 µM (inactive),> 100 µM (inactive),> 100 µM (inactive),> 100 µM (inactive),> 100 µM (inactive),> 100 µM (inactive),> 100 µM (inactive),> 100 µM,> 100 µM (inactive),> 100 µM (inactive),> 100 µM (inactive),> 100 µM (inactive),> 100 µM (inactive),> 100 µM (inactive)
COc1ccc(CCN2CCC(C#N)(c3ccc(OC)c(OC)c3)CC2)cc1OC,> 100 µM (inactive),> 100 µM (inactive),–,> 100 µM (inactive),> 100 µM (inactive),> 100 µM (inactive),84.9 µM (inactive),> 100 µM (inactive),> 100 µM (inactive),> 100 µM (inactive),> 100 µM (inactive),> 100 µM,> 100 µM (inactive),> 100 µM (inactive),> 100 µM (inactive),> 100 µM (inactive),> 100 µM (inactive),> 100 µM (inactive)
CC12Nc3ccccc3C1=C(c1ccccc1)CC1C(=O)OC(=O)C12 (centres undefined),> 100 µM (inactive),–,–,–,> 100 µM (inactive),> 100 µM (inactive),> 100 µM (inactive),> 100 µM (inactive),> 100 µM (inactive),> 100 µM (inactive),> 100 µM (inactive),> 100 µM,> 100 µM (inactive),> 100 µM (inactive),> 100 µM (inactive),> 100 µM (inactive),> 100 µM (inactive),> 100 µM (inactive)
O=C1CCC(=O)N1Sc1ccccc1,–,–,> 100 µM (inactive),> 100 µM (inactive),> 100 µM (inactive),> 100 µM (inactive),> 100 µM (inactive),> 100 µM (inactive),> 100 µM (inactive),> 100 µM (inactive),> 100 µM (inactive),> 100 µM,> 100 µM (inactive),> 100 µM (inactive),> 100 µM (inactive),> 100 µM (inactive),> 100 µM (inactive),> 100 µM (inactive)
COc1ccc(C2=C(Cl)c3cc(OC)c(OC)cc3C2OC)cc1OC (centres undefined),> 100 µM (inactive),> 100 µM (inactive),> 100 µM (inactive),–,> 100 µM (inactive),> 100 µM (inactive),3.25 µM (inactive),26.9 µM (inactive),> 100 µM (inactive),> 100 µM (inactive),> 100 µM (inactive),56.9 µM,> 100 µM (inactive),> 100 µM (inactive),> 100 µM (inactive),> 100 µM (inactive),> 100 µM (inactive),11.2 µM (inactive)
O=NN(CCCl)C(=O)N[C@H]1CCCC[C@@H]1Cl,79.6 µM (inactive),> 100 µM (inactive),> 100 µM (inactive),> 100 µM (inactive),–,> 100 µM (inactive),> 100 µM (inactive),> 100 µM (inactive),> 100 µM (inactive),> 100 µM (inactive),> 100 µM (inactive),> 100 µM,> 100 µM (inactive),> 100 µM (inactive),–,> 100 µM (inactive),57.7 µM (inactive),37.8 µM (inactive)
